According to ChEMBL document CHEMBL1122732, “Vitamin K dependent carboxylation: synthesis and biological properties of tetrazolyl analogues of pentapeptidic substrates” (J Med Chem, 1984):

What was measured:
[1] = (§1) Compound were evaluated for its binding affinity against vitamin K dependent carboxylation
[2] = as §1; remark: listed apart in the source

Ki [1] [mM] | Km [2] [µM] | Molecule
20 | – | H-FLEEV-OH
3.1 | – | CC(C)C[C@H](NC(=O)[C@@H](N)Cc1ccccc1)C(=O)N[C@@H](CCc1nn[nH]n1)C(=O)N[C@@H](CCc1nn[nH]n1)C(=O)N[C@H](C(=O)O)C(C)C
3 | 3000 | CC(C)C[C@H](NC(=O)[C@@H](N)Cc1ccccc1)C(=O)N[C@@H](CCC1N=NN=N1)C(=O)N[C@@H](CCC1N=NN=N1)C(=O)N[C@H](C(=O)O)C(C)C
